BindingDB's records for doi:10.1016/s0960-894x(99)00670-8 (Institute, 2000)
pKi: −log10 of the molar value.

Assay: Binding affinity was determined against Opioid receptor delta 1 obtained from guinea pig brain membranes using [3H]naltrindole as radioligand

C[C@H]1C2Cc3ccc(N)cc3[C@@]1(C)CCN2CC1CC1 [3-Cyclopropylmethyl-6,11-dimethyl-1,2,3,4,5,6-hexahydro-2,6-methano-benzo[d]azocin-8-ylamine]
pKi: 7.92
